One experiment deals with T1, caspase-5 (Homo sapiens, UniProt P51878).
T1 sequence (P51878 137-327 limits assumed): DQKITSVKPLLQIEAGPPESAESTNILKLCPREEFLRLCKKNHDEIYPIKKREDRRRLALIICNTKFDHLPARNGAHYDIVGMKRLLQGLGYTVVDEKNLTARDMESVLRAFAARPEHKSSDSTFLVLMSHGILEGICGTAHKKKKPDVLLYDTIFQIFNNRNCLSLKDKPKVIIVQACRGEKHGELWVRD
T1 sequence (P51878 347-434 limits assumed): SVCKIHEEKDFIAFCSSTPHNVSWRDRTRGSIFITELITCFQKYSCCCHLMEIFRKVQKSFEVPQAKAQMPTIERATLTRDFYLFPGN
In words: Irreversible inhibitor kinetic assay (progress curve), caspase-5, substrate Ac-WEHD-AMC. Particulars: casp-5; duplicate, SD included. The class given is biochemical. From the text:
(§1) Caspases-3, -6, -7, -8, and -9 were provided by Guy Salvesen's laboratory at the Burnham Institute (La Jolla, Calif.). Caspase-1 was purchased from EMD Biosciences (San Diego, Calif.) and Caspase-2 was purchased from Biomol International (Plymouth Meeting, Pa.). Caspase substrates Ac-DEVD-AMC, Ac-VDVAD-AFC, and Ac-LEHD-AFC were purchased from EMD Biosciences (San Diego, Calif.) and Ac-VDVAD-AMC was purchased from Biomol International (Plymouth Meeting, Pa.). The proteolytic cleavage of N-acyl aminocoumarins by caspases was conducted in Dynatech Microfluor fluorescence 96-well microtiter plates, and readings were taken on a Molecular Devices Spectra Max Gemini XS instrument. The excitation wavelength was 370 nm and the emission wavelength was 455 nm for AMCA substrates, the excitation wavelength was 355 nm and the emission wavelength was 450 nm for peptidyl AMC substrates, and the excitation wavelength was 430 nm and the emission wavelength was 535 nm for peptidyl AFC substrates.
(§2) The kinact/Ki for inhibitors were determined under pseudo-first order conditions using the progress curve method (Eckici et al. (2006) J. Med. Chem., 49: 5728-5749; Bieth (1995) Meth. Enzymol., 248: 59-84). Assay wells contained a mixture of inhibitor and AMC or AFC substrate in buffer. Aliquots of caspase were added to each well to initiate the assay. Hydrolysis of the AMC or AFC substrate was monitored fluorometrically for 45 min. To determine the inhibition parameters, time points for which the control ([I]=0) was linear were used. For each inhibitor, a kobs was calculated for at least four different concentrations of inhibitors via a nonlinear regression of the data according to the equation P=(vi/kobs)[1−exp(−kobst) (where product formation=P, […], and the first-order rate constant=kobs). If kobs varied linearly with [I], then the association constant kass was determined by linear regression analysis using kobs=(kass[I])/(1+[S]/Km) where [S] is the concentration of the substrate. […] Inhibition was measured in duplicate and the average of is reported. […]

In a further experiment the test system is Hdh111Q cells. Kind of experiment: Evaluation of inhibitors in Hdh111Q cells (toxicity, caspase activation). In kind it is cell-based. Particulars: for Hdh111Q mediated toxicity: 1-100 nM; for Caspase activation in Hdh111Q cells: FIG. 18.
The target of a further experiment is T2, caspase-7 (Homo sapiens, UniProt P55210).
T2 construct: gift: Guy Salvesen's laboratory, Burnham Institute (La Jolla, Calif.)
T2 sequence (P55210 24-198 limits assumed): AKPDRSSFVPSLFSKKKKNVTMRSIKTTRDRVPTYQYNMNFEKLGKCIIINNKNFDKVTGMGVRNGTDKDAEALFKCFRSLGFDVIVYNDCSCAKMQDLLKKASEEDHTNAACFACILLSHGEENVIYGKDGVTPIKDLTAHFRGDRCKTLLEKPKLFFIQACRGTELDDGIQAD
T2 sequence (P55210 207-303 limits assumed): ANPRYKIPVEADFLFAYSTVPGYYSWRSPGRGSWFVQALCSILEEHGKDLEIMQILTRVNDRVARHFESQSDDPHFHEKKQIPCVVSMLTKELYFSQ
Kind of experiment: Irreversible inhibitor kinetic assay (progress curve), caspase-7, substrate Ac-DEVD-AMC. The class given is biochemical. To be noted: casp-7; duplicate, SD included.
Source text: as §1, §2

In the case of `C[C@@](NC(=O)CCCC(=O)O)(c1cn([C@@H](CC(=O)O)C(=O)COc2c(F)c(F)cc(F)c2F)nn1)C1CCCCC1` [MJL-002i], at caspase-5, the kinact/Ki is on record as 16,500 ± 850 s^−1/M^−1. Besides, in the experiment with Hdh111Q cells, the Hdh111Q mediated toxicity result is recorded as “suppressed” and the “Caspase activation in Hdh111Q cells” value is recorded as “block”. Besides, the kinact/Ki on caspase-7 is 57,250 ± 1,550 s^−1/M^−1.

Regarding `C[C@@](NS(=O)(=O)Cc1ccccc1)(c1cn([C@@H](CC(=O)O)C(=O)COc2c(F)c(F)cc(F)c2F)nn1)C1CCCCC1` [MJL-001i], at caspase-5, the kinact/Ki is 2,250 ± 350 s^−1/M^−1. In the experiment with Hdh111Q cells, the Hdh111Q mediated toxicity result is given as “suppressed” and the “Caspase activation in Hdh111Q cells” value is “block”. Moreover, the kinact/Ki at caspase-7 is on record as 27,700 ± 2,000 s^−1/M^−1.

For the molecule `C[C@@](NC(=O)Cc1ccccc1)(c1cn([C@@H](CC(=O)O)C(=O)COc2c(F)c(F)cc(F)c2F)nn1)C1CCCCC1` [MJL-003i], on caspase-5, the kinact/Ki is on record as 3,300 ± 200 s^−1/M^−1. Further, in the experiment on Hdh111Q cells, the Hdh111Q mediated toxicity result is “suppressed” and the “Caspase activation in Hdh111Q cells” value is “block”. The “Rank of potency in blocking caspase activation in Hdh111Q cells” value in the experiment on Hdh111Q cells (among MJL-001i, MJL-002i, MJL-003i) is “most potent”. Besides, the kinact/Ki at caspase-7 is recorded as 34,200 ± 3,800 s^−1/M^−1.

(Values after patent US8518942B2, “Caspase inhibitors and uses thereof” (Buck Institute for Research on Aging, priority 2008, dated 2013).)
